According to patent US20060112494A1, “Method of protecting an animal skin product from metalloproteinase activity” (priority 2004, published 2006):
Like-named read-outs stand apart in the source and are kept apart here.

Legend:
[1] = test system: mixed bacteria on fresh hide samples; design: Growth/Days 2 / Growth/Days 4: key to the marks not given beside the values; details: for Growth/Days 1: day 1; for Growth/Days 2: day 2; for Growth/Days 4: day 4;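 on all read-outs here: fresh hide pieces laid on inhibitor-containing nutrient agar supplemented with 0.5% Azocoll, incubated at 30 °C, then scored for growth of bacteria originating from the hide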
Pseudomonas fluorescens = details: for Growth/Days 1: day 1; for Growth/Days 2: day 2; for Growth/Days 7: day 7
Protocol: (§1) Nutrient agar amended with Azocoll (a substrate made up of insoluble particles of collagen impregnated with a bright azo dye) was used as the test medium to study collagenase activity. The nutrient agar was prepared and autoclaved and then was cooled to 55° C. Azocol was added to give a final concentration of 0.5%. […] Using a sterile spatula or cork-borer, the middle portion of each plate of about the size of a United States quarter, was scooped out. Fresh nutrient agar-azocoll medium containing no inhibitor was added to replace the scooped out portion of the plate. […] The bacteria were grown overnight on nutrient agar. A suspension of each culture was made in sterile water and used to inoculate the middle portion of each plate. The treated samples were incubated at 30° C. and evaluated after 24 hours, 2 days and 7 days for collagenase activity and also for the growth of the bacteria. The test cultures secreted collagenase into the medium as they grew to degrade the collagen in the azocoll medium, and collagenase activity was determined by visual inspection of the clear zone around the bacteria. All % are by weight percent of the active ingredient.

collagenase [2] = details: for Collagenase Activity/Days 1: day 1; for Collagenase Activity/Days 2: day 2; for Collagenase Activity/Days 7: day 7
collagenase [3] = details: for Collagenase Activity/Days 1: day 1; for Collagenase Activity/Days 2: day 2; for Collagenase Activity/Days 7: day 7; remark: listed apart in the source
Protocol: Nutrient agar amended with 0.5% AZOCOLL was used as the test medium to study collagenase activity. The nutrient agar was prepared and autoclaved and then was cooled to 55° C. Azocol was added to give a final concentration of 0.5%. […] Fresh hides were obtained from a tannery and were cut into pieces of approximately 2 cm square. One 2×2 cm hide sample was placed on top of the agar containing the inhibitors. Treated samples were incubated at 30° C. and evaluated after 24 hours, 2 days, 3 or 4 days and 7 days for collagenase activity and also for the growth of the bacteria. The bacteria from the hides secreted collagenase into the medium as they grew to degrade the collagen in the azocoll medium and collagenase activity was determined by visual inspection of the clear zone around the bacteria

Aeromonas salmonicida = test system: Aeromonas salmonicida; design: key to the marks not given beside the values; details: for Growth/Days 1: day 1; for Growth/Days 2: day 2; for Growth/Days 7: day 7
Protocol: as §1

collagenase [4] = details: for Collagenase Activity/Days 1: day 1; for Collagenase Activity/Days 2: day 2; for Collagenase Activity/Days 7: day 7; remark: listed apart in the source
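Wherever Collagenase Activity/Days 4 is given: nutrient agar containing 0.5% Azocoll with inhibitor, topped by a fresh hide piece, kept at 30 °C, collagenase from hide bacteria scored visually as clearing zone around growth.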

With O=C(O)CN(CCOCCOCCN(CC(=O)O)CC(=O)O)CC(=O)O [Na4EGTA, ethylene glycol-bis(β-aminoethylether)-N,N,N′N′-tetraacetic acid] the “Growth/Days 1” value ([1]; Conc. 0.025%) was “++++”, the “Growth/Days 2” value ([1]; Conc. 0.025%) was “++++” and the “Growth/Days 4” value ([1]; Conc. 0.025%) was “++++”. For the same molecule, the “Growth/Days 1” value ([1]; Conc. 0.05%) was “++++”, the “Growth/Days 2” value ([1]; Conc. 0.05%) was “++++” and the “Growth/Days 4” value ([1]; Conc. 0.05%) was “++++”. The “Growth/Days 1” value ([1]; Conc. 0.075%) was “++++”, the “Growth/Days 2” value ([1]; Conc. 0.075%) was “++++” and the “Growth/Days 4” value ([1]; Conc. 0.075%) was “++++”. The “Growth/Days 1” value ([1]; Conc. 0.1%) was “++++”, the “Growth/Days 2” value ([1]; Conc. 0.1%) was “++++” and the “Growth/Days 4” value ([1]; Conc. 0.1%) was “++++”. The “Growth/Days 1” value ([1]; Conc. 0.2%) was “++++”, the “Growth/Days 2” value ([1]; Conc. 0.2%) was “++++” and the “Growth/Days 4” value ([1]; Conc. 0.2%) was “++++”. The “Growth/Days 1” value ([1]; Conc. 0.3%) was “++++”, the “Growth/Days 2” value ([1]; Conc. 0.3%) was “++++” and the “Growth/Days 4” value ([1]; Conc. 0.3%) was “++++”. For the same molecule, the “Growth/Days 1” value ([1]; Conc. 0.4%) was “+++”, the “Growth/Days 2” value ([1]; Conc. 0.4%) was “++++” and the “Growth/Days 4” value ([1]; Conc. 0.4%) was “++++”. For the same molecule, the “Growth/Days 1” value ([1]; Conc. 0.5%) was “+++”, the “Growth/Days 2” value ([1]; Conc. 0.5%) was “++++” and the “Growth/Days 4” value ([1]; Conc. 0.5%) was “++++”. For the same molecule, the “Growth/Days 1” value (Pseudomonas fluorescens; Conc. 0.025%) was “++++”, the “Growth/Days 2” value (Pseudomonas fluorescens; Conc. 0.025%) was “++++” and the “Growth/Days 7” value (Pseudomonas fluorescens; Conc. 0.025%) was “++++”. For the same molecule, the “Growth/Days 1” value (Pseudomonas fluorescens; Conc. 0.05%) was “++++”, the “Growth/Days 2” value (Pseudomonas fluorescens; Conc. 0.05%) was “++++” and the “Growth/Days 7” value (Pseudomonas fluorescens; Conc. 0.05%) was “++++”. For the same molecule, the “Growth/Days 1” value (Pseudomonas fluorescens; Conc. 0.075%) was “++++”, the “Growth/Days 2” value (Pseudomonas fluorescens; Conc. 0.075%) was “++++” and the “Growth/Days 7” value (Pseudomonas fluorescens; Conc. 0.075%) was “++++”. The “Growth/Days 1” value (Pseudomonas fluorescens; Conc. 0.1%) was “++++”, the “Growth/Days 2” value (Pseudomonas fluorescens; Conc. 0.1%) was “++++” and the “Growth/Days 7” value (Pseudomonas fluorescens; Conc. 0.1%) was “++++”. For the same molecule, the “Growth/Days 1” value (Pseudomonas fluorescens; Conc. 0.2%) was “++++”, the “Growth/Days 2” value (Pseudomonas fluorescens; Conc. 0.2%) was “++++” and the “Growth/Days 7” value (Pseudomonas fluorescens; Conc. 0.2%) was “++++”. The “Growth/Days 1” value (Pseudomonas fluorescens; Conc. 0.3%) was “++++”, the “Growth/Days 2” value (Pseudomonas fluorescens; Conc. 0.3%) was “++++” and the “Growth/Days 7” value (Pseudomonas fluorescens; Conc. 0.3%) was “++++”. For the same molecule, the “Growth/Days 1” value (Pseudomonas fluorescens; Conc. 0.4%) was “++++”, the “Growth/Days 2” value (Pseudomonas fluorescens; Conc. 0.4%) was “++++” and the “Growth/Days 7” value (Pseudomonas fluorescens; Conc. 0.4%) was “++++”. For the same molecule, the “Growth/Days 1” value (Pseudomonas fluorescens; Conc. 0.5%) was “++++”, the “Growth/Days 2” value (Pseudomonas fluorescens; Conc. 0.5%) was “++++” and the “Growth/Days 7” value (Pseudomonas fluorescens; Conc. 0.5%) was “++++”. For the same molecule, the “Collagenase Activity/Days 1” value (collagenase [2]; Conc. 0.1%) was 0, the “Collagenase Activity/Days 2” value (collagenase [2]; Conc. 0.1%) was 0 and the “Collagenase Activity/Days 1” value (collagenase [2]; Conc. 0.25%) was 0. The “Collagenase Activity/Days 2” value (collagenase [2]; Conc. 0.25%) was 0, the “Collagenase Activity/Days 7” value (collagenase [2]; Conc. 0.25%) was 0 and the “Collagenase Activity/Days 1” value (collagenase [2]; Conc. 0.5%) was 0. For the same molecule, the “Collagenase Activity/Days 2” value (collagenase [2]; Conc. 0.5%) was 0, the “Collagenase Activity/Days 7” value (collagenase [2]; Conc. 0.5%) was 0 and the “performance as collagenase inhibitors (summary in words)” value (“performance as collagenase inhibitors” for short) (collagenase [2]; collagenase produced by the bacteria studied, Table 2) was “performed very well as collagenase inhibitors”. For the same molecule, the “Collagenase Activity/Days 1” value (collagenase [3]; Conc. 0.025%) was “++++”, the “Collagenase Activity/Days 2” value (collagenase [3]; Conc. 0.025%) was “++++” and the “Collagenase Activity/Days 4” value (collagenase [3]; Conc. 0.025%, day 4) was “++++”. The “Collagenase Activity/Days 7” value (collagenase [3]; Conc. 0.025%) was “++++”, the “Collagenase Activity/Days 4” value (collagenase [3]; Conc. 0.05%, day 4) was “++++” and the “Collagenase Activity/Days 1” value (collagenase [3]; Conc. 0.075%) was 0. For the same molecule, the “Collagenase Activity/Days 4” value (collagenase [3]; Conc. 0.075%, day 4) was “++++”, the “Collagenase Activity/Days 1” value (collagenase [3]; Conc. 0.1%) was 0 and the “Collagenase Activity/Days 2” value (collagenase [3]; Conc. 0.1%) was 0. For the same molecule, the “Collagenase Activity/Days 4” value (collagenase [3]; Conc. 0.1%, day 4) was “+”, the “Collagenase Activity/Days 1” value (collagenase [3]; Conc. 0.2%) was 0 and the “Collagenase Activity/Days 2” value (collagenase [3]; Conc. 0.2%) was 0. The “Collagenase Activity/Days 4” value (collagenase [3]; Conc. 0.2%, day 4) was “+”, the “Collagenase Activity/Days 1” value (collagenase [3]; Conc. 0.3%) was 0 and the “Collagenase Activity/Days 2” value (collagenase [3]; Conc. 0.3%) was 0. For the same molecule, the “Collagenase Activity/Days 4” value (collagenase [3]; Conc. 0.3%, day 4) was “+”, the “Collagenase Activity/Days 1” value (collagenase [3]; Conc. 0.4%) was 0 and the “Collagenase Activity/Days 2” value (collagenase [3]; Conc. 0.4%) was 0. For the same molecule, the “Collagenase Activity/Days 4” value (collagenase [3]; Conc. 0.4%, day 4) was 0, the “Collagenase Activity/Days 4” value (collagenase [3]; Conc. 0.5%, column day 4, footnote **: data collected on Day 3) was 0** and the “Collagenase Activity/Days 1” value (collagenase [3]; Conc. 0.5%) was 0. For the same molecule, the “Collagenase Activity/Days 2” value (collagenase [3]; Conc. 0.5%) was 0, the “Collagenase Activity/Days 7” value (collagenase [3]; Conc. 0.5%) was 0 and the “performance as collagenase inhibitors” value (collagenase [3]; collagenase produced by the mixed culture of bacteria from the hides) was “performed very well as collagenase inhibitors”. For the same molecule, the “Growth/Days 1” value (Aeromonas salmonicida; Conc. 0.1%) was “++++”, the “Growth/Days 2” value (Aeromonas salmonicida; Conc. 0.1%) was “++++” and the “Growth/Days 7” value (Aeromonas salmonicida; Conc. 0.1%) was “++++”. For the same molecule, the “Growth/Days 1” value (Aeromonas salmonicida; Conc. 0.25%) was “++++”, the “Growth/Days 2” value (Aeromonas salmonicida; Conc. 0.25%) was “++++” and the “Growth/Days 7” value (Aeromonas salmonicida; Conc. 0.25%) was “++++”. The “Growth/Days 1” value (Aeromonas salmonicida; Conc. 0.5%) was “++++”, the “Growth/Days 2” value (Aeromonas salmonicida; Conc. 0.5%) was “++++” and the “Growth/Days 7” value (Aeromonas salmonicida; Conc. 0.5%) was “++++”. The “Collagenase Activity/Days 1” value (collagenase [4]; Conc. 0.025%) was “++++”, the “Collagenase Activity/Days 2” value (collagenase [4]; Conc. 0.025%) was “++++” and the “Collagenase Activity/Days 7” value (collagenase [4]; Conc. 0.025%) was “++++”. For the same molecule, the “Collagenase Activity/Days 1” value (collagenase [4]; Conc. 0.075%) was 0, the “Collagenase Activity/Days 1” value (collagenase [4]; Conc. 0.1%) was 0 and the “Collagenase Activity/Days 2” value (collagenase [4]; Conc. 0.1%) was 0. For the same molecule, the “Collagenase Activity/Days 1” value (collagenase [4]; Conc. 0.2%) was 0, the “Collagenase Activity/Days 2” value (collagenase [4]; Conc. 0.2%) was 0 and the “Collagenase Activity/Days 1” value (collagenase [4]; Conc. 0.3%) was 0. For the same molecule, the “Collagenase Activity/Days 2” value (collagenase [4]; Conc. 0.3%) was 0, the “Collagenase Activity/Days 1” value (collagenase [4]; Conc. 0.4%) was 0 and the “Collagenase Activity/Days 2” value (collagenase [4]; Conc. 0.4%) was 0. The “Collagenase Activity/Days 1” value (collagenase [4]; Conc. 0.5%) was 0, the “Collagenase Activity/Days 2” value (collagenase [4]; Conc. 0.5%) was 0 and the “Collagenase Activity/Days 7” value (collagenase [4]; Conc. 0.5%) was 0. For the same molecule, the “performance as collagenase inhibitors” value (collagenase [4]; collagenase produced by the bacteria studied, Table 1) was “performed very well as collagenase inhibitors”.
